This note sets out measurements from DBAASP.

Some test systems named below: Aeromonas salmonicida; Vibrio anguillarum; Escherichia coli; Bacillus subtilis DELTA; Candida parapsilosis; Candida albicans DBFIQ 1; Candida albicans PEEC 2; Salmonella sp.; Yersinia enterocolitica.
Common to all, as to experiment: ≥ marks a high value that may be exact or a test limit, other limits are often not marked, values filed in µg/mL are converted to µM
The subject of assay [1] is Pseudomonas aeruginosa K799.
The test system of assay [2] is Pseudomonas aeruginosa Z61.
Assay [3] relates to Salmonella enterica serovar typhimurium MS7953s.
For assay [4], the system named is Salmonella enterica subsp. enterica serovar Typhimurium ATCC 14028s.
Assay [5] deals with Staphylococcus epidermidis C621.
The test system of assay [6] is Staphylococcus aureus ATCC 25923.
In assay [7] the test system is Staphylococcus aureus ATCC BAA-1683.
The test system of assay [8] is Escherichia coli DH5alpha.
Assay [9] deals with Pseudomonas aeruginosa PAO1.
The test system of assay [10] is Zymomonas mobilis ATCC 10988.
Assay [11] has as its system Candida tropicalis DBFIQ 3.
Assay [12] concerns Enterococcus faecalis ATCC 29212.
In assay [13] the test system is Escherichia coli ATCC 35218.
In assay [14] the test system is Pseudomonas aeruginosa ATCC 27853.
Assay [15] concerns Staphylococcus aureus BSF FBCB1313.
Assay [16] deals with Acinetobacter baumannii ATCC 7978.
Assay [17] relates to Candida albicans ATCC 10231.
The test system of assay [18] is Enterococcus faecium E007.
The test system of assay [19] is Staphylococcus aureus ATCC 29231.
The test system of assay [20] is Cryptococcus neoformans ATCC 32264.
For assay [21], the system named is Escherichia coli ATCC 25922.
Assay [22] has as its system Salmonella enterica subsp. enterica serovar Enteritidis.
The subject of assay [23] is Staphylococcus aureus ATCC 29213.
Assay [24] concerns Staphylococcus aureus ATCC 43300.

Broadly, the MIC is the lowest concentration that inhibits growth of the organism. A low value points to inhibition by little substance.

Converted amounts (≈) assume the structure as drawn.

On to `CSCC[C@H](NC(=O)[C@@H](NC(=O)[C@H](CCCCN)NC(=O)[C@H](Cc1c[nH]c2ccccc12)NC(=O)[C@H](CC(C)C)NC(=O)[C@H](C)N)[C@@H](C)O)C(=O)N[C@@H](CC(C)C)C(=O)N[C@@H](CCCCN)C(=O)N[C@@H](CCCCN)C(=O)N[C@@H](C)C(=O)N[C@@H](C)C(=O)N[C@@H](Cc1cnc[nH]1)C(=O)N[C@H](C(=O)NCC(=O)N[C@@H](CCCCN)C(=O)N[C@@H](Cc1cnc[nH]1)C(=O)N[C@H](C(=O)NCC(=O)N[C@@H](CCCCN)C(=O)N[C@@H](C)C(=O)N[C@@H](C)C(=O)N[C@@H](CC(C)C)C(=O)N[C@H](C(=O)N[C@@H](Cc1cnc[nH]1)C(=O)N[C@@H](Cc1ccc(O)cc1)C(=O)N[C@@H](CC(C)C)C(=O)N[C@@H](CC(N)=O)C(=O)O)[C@@H](C)O)C(C)C)C(C)C` [ALWKTMLKKAAHVGKHVGKAALTHYLN], for which the minimum inhibitory concentration (MIC) against Aeromonas salmonicida is 0.335 µM (≈ 1 µg/mL); in assay [1] it was 1.34 µM (≈ 4 µg/mL); in [2], 2.68 µM (≈ 8 µg/mL); in [3], 0.167 µM (≈ 0.5 µg/mL); in assay [4], 1.34 µM (≈ 4 µg/mL); in [5], 1.34 µM (≈ 4 µg/mL). In the assay on Vibrio anguillarum, this compound gave an MIC of 1.34 µM (≈ 4 µg/mL).
Consider `CC(C)C[C@H](NC(=O)[C@H](CC(C)C)NC(=O)[C@H](CCCN=C(N)N)NC(=O)[C@H](CCCCN)NC(=O)[C@H](CCCCN)NC(=O)[C@@H](N)CCC(=O)O)C(=O)N[C@@H](CCCCN)C(=O)N[C@@H](Cc1c[nH]c2ccccc12)C(=O)N[C@@H](Cc1c[nH]c2ccccc12)C(=O)N[C@@H](CCCN=C(N)N)C(N)=O` [EKKRLLKWWR], for which the MIC in the assay on Escherichia coli was 347 µM (≈ 500 µg/mL); in [6], 86.6 µM (≈ 125 µg/mL); in [7], ≥ 86.6 µM.
`CC[C@H](C)[C@H](NC(=O)[C@H](CCCN=C(N)N)NC(=O)[C@H](CCC(N)=O)NC(=O)[C@H](CC(C)C)NC(=O)[C@@H](NC(=O)[C@H](CCCN=C(N)N)NC(=O)[C@H](CCCCN)NC(=O)[C@H](Cc1ccccc1)NC(C)=O)[C@@H](C)CC)C(=O)N[C@@H](CCCCN)C(=O)N[C@@H](CC(=O)O)C(=O)N[C@@H](Cc1ccccc1)C(=O)N[C@@H](CC(C)C)C(=O)N[C@@H](CCCN=C(N)N)C(N)=O` [FKRILQRIKDFLR]: the MIC with Bacillus subtilis DELTA was ≥ 57.7 µM; against Candida parapsilosis, 23.1 µM (≈ 40.9 µg/mL); in assay [8], ≥ 57.7 µM; in assay [9] it was 11.5 µM (≈ 20.5 µg/mL); in assay [10], 28.8 µM (≈ 51.2 µg/mL).
For the compound `CC(C)C[C@H](NC(=O)[C@H](CCCCN)NC(=O)[C@H](CCCCN)NC(=O)[C@H](Cc1ccccc1)NC(=O)[C@H](CC(C)C)NC(=O)[C@@H](N)CCCCN)C(=O)N[C@@H](Cc1ccccc1)C(=O)N[C@@H](CCCCN)C(N)=O` [KLFKKLFK], the MIC was ≥ 122 µM with Candida albicans DBFIQ 1; ≥ 122 µM with Candida albicans PEEC 2; ≥ 122 µM in assay [11]; 15.2 µM (≈ 16 µg/mL) in [12]; 7.6 µM (≈ 7.98 µg/mL) in [13]; 60.9 µM (≈ 64 µg/mL) in [14]. Moreover, the MIC in [6] is 7.6 µM (≈ 7.98 µg/mL); in [15], 30.5 µM (≈ 32 µg/mL).
As for `CC[C@H](C)[C@H](NC(=O)[C@H](CCCCN)NC(=O)[C@H](Cc1c[nH]c2ccccc12)NC(=O)[C@H](Cc1c[nH]c2ccccc12)NC(=O)[C@@H](NC(=O)[C@H](CCCCN)NC(=O)[C@H](Cc1c[nH]c2ccccc12)NC(=O)[C@@H](N)CC(C)C)[C@@H](C)CC)C(=O)N[C@@H](Cc1c[nH]c2ccccc12)C(=O)N[C@@H](CCCN=C(N)N)C(=O)N[C@H](C(=O)N[C@@H](Cc1c[nH]c2ccccc12)C(=O)N[C@@H](CCCCN)C(=O)N[C@@H](CC(N)=O)C(=O)N[C@@H](Cc1c[nH]c2ccccc12)C(=O)N[C@@H](CCCN=C(N)N)C(=O)O)C(C)C` [LWKIWWKIWRVWKNWR], the MIC in [16] is ≥ 53.7 µM; in [17], 26.8 µM (≈ 64 µg/mL); in [18], ≥ 53.7 µM; in assay [19], 3.35 µM (≈ 7.99 µg/mL).
Consider `CC[C@H](C)[C@H](NC(=O)[C@H](CCC(N)=O)NC(=O)[C@@H](N)CCCN=C(N)N)C(=O)N[C@@H](CCCN=C(N)N)C(=O)N[C@@H](CCCN=C(N)N)C(=O)N[C@@H](Cc1c[nH]c2ccccc12)C(=O)N[C@@H](Cc1c[nH]c2ccccc12)C(=O)N[C@@H](CCC(N)=O)C(=O)N[C@@H](Cc1c[nH]c2ccccc12)C(=O)N[C@@H](CCCN=C(N)N)C(=O)N[C@@H](CCCN=C(N)N)C(N)=O` [RQIRRWWQWRR], for which the MIC in [17] stood at 50 µM (≈ 86.3 µg/mL); in assay [20] it was 25 µM (≈ 43.2 µg/mL).
`CC[C@H](C)[C@H](NC(=O)[C@H](CCC(N)=O)NC(=O)[C@@H](N)CCCN=C(N)N)C(=O)N[C@@H](Cc1c[nH]c2ccccc12)C(=O)N[C@@H](CCCN=C(N)N)C(=O)N[C@@H](Cc1c[nH]c2ccccc12)C(=O)N[C@@H](Cc1c[nH]c2ccccc12)C(=O)N[C@@H](CCC(N)=O)C(=O)N[C@@H](Cc1c[nH]c2ccccc12)C(N)=O` [RQIWRWWQW]: the MIC in assay [21] was > 50 µM; with Escherichia coli, > 50 µM; in [14], > 50 µM; in assay [22] it was ≥ 50 µM; against Salmonella sp., ≥ 50 µM; in [23] it was > 50 µM. The MIC was > 50 µM in [24] and ≥ 50 µM against Yersinia enterocolitica.
